US9029420B2, “Agomelatine and pharmaceutical compositions thereof” (Tianjin Taipu Pharmaceutical Science & Technology …, priority 2009, dated 2015)

Assay: pharmacological and pharmacodynamic studies
Conditions: no method or data given

With `COc1ccc2cccc(CCNC(C)=O)c2c1` [agomelatine crystal, N-[2-(7-methoxy-1-naphthyl)-ethyl]acetamide] the “therapeutic effects for central neural system and microcirculation” value was “good therapeutic effects for central neural system and microcirculation”.
